Results: ChEMBL document CHEMBL5236643, “Discovery and characterization of orally bioavailable 4-chloro-6-fluoroisophthalamides as covalent PPARG inverse-agonists” (Bioorg Med Chem, 2023)
The source made the active and inactive calls. The calls are words filed in the database; no cut-off is given here.

How the values were obtained:
[1] = Antiproliferative activity against human UM-UC-9 assessed as inhibition of cell proliferation measured after 7 days by IncuCyte live-cell imaging assay; details: UM-UC-9, 168 h
[2] = target: T1, Peroxisome proliferator-activated receptor gamma (Homo sapiens, UniProt P37231); test: Inverse agonist activity at GST tagged human PPARgamma LBD (231 to 505 residues) expressed in Escherichia coli BL21(DE3) assessed as recruitment of fluorescein labeled corepressor NCOR2 Smrt-ID2 peptide to PPARgamma LBD incubated for 24 hrs by LanthaScreen TR-FRET assay
T1 sequence (P37231 whole entry): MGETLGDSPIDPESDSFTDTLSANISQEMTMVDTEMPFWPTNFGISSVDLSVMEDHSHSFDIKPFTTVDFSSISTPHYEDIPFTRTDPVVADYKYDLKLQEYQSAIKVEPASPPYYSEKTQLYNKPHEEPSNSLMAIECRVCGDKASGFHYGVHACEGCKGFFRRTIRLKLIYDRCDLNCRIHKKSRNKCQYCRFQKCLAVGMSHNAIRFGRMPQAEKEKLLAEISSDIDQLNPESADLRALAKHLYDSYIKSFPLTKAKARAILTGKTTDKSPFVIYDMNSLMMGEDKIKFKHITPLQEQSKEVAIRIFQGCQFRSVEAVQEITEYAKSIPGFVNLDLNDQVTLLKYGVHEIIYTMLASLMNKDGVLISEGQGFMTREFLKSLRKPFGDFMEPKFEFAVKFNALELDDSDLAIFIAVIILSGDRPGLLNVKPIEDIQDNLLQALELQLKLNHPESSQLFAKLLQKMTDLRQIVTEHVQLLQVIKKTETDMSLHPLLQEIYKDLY

[3] = Antiproliferative activity against human UM-UC-9 assessed as inhibition of cell proliferation by measuring maximum efficacy after 7 days by IncuCyte live-cell imaging assay; assay type: functional; details: UM-UC-9, 168 h, time 7 day
[4] = target: T1, Peroxisome proliferator-activated receptor gamma; test: Inverse agonist activity at human PPARgamma in human RT112/84 transfected with NLuc-fused FABP4 assessed as reduction in PPARgamma transactivation incubated for 6 to 18 hrs by Nano-Glo luciferase assay; assay type: cell-based
[5] = target: T2, Peroxisome proliferator-activated receptor alpha (Homo sapiens, UniProt Q07869); test: Agonist activity at human PPARalpha expressed in CHO cells co-expressing GAL4-NHR-LBD assessed as transcriptional activation preincubated for 6 hrs followed by luciferin addition by luminescence method; assay type: cell-based
T2 sequence (Q07869 whole entry): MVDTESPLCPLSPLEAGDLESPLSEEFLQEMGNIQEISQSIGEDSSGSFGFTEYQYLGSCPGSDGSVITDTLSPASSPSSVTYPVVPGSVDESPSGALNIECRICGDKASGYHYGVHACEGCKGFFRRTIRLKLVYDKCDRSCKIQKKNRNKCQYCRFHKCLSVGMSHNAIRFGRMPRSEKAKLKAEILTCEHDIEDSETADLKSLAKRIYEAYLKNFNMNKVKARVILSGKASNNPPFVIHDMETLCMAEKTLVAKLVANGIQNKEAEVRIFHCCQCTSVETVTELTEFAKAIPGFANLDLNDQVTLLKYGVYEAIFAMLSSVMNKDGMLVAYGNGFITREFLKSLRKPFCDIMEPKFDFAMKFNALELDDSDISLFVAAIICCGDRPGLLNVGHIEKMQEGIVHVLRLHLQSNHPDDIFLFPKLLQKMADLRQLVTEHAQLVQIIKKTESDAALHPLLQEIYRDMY

[6] = target: T3, Peroxisome proliferator-activated receptor alpha (Homo sapiens) (UniProt Q07869); test: Agonist activity at human PPARalpha expressed in CHO cells co-expressing GAL4-NHR-LBD assessed as transcriptional activation by measuring maximum efficacy preincubated for 6 hrs followed by luciferin addition by luminescence method; assay type: cell-based; details: filed as agonist
T3 sequence (whole entry): T2 sequence (Q07869 whole entry)

[7] = target: T4, Peroxisome proliferator-activated receptor delta (Homo sapiens, UniProt Q03181); test: Inverse agonist activity at human PPARdelta expressed in CHO cells co-expressing GAL4-NHR-LBD assessed as transcriptional repression preincubated for 6 hrs followed by luciferin addition by luminescence method; assay type: cell-based
T4 sequence (Q03181 whole entry): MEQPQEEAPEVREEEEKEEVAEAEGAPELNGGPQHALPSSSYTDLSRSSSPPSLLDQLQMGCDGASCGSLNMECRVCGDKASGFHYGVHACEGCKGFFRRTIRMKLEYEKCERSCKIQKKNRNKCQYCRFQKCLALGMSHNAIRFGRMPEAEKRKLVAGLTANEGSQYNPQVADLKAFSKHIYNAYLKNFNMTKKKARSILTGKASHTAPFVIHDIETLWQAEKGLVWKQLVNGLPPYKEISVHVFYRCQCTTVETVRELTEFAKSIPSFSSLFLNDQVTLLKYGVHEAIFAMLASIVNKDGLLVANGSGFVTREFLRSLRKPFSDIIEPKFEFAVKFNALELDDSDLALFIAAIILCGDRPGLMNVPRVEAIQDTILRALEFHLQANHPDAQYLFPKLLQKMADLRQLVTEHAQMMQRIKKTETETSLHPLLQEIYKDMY

[8] = target: T5, Peroxisome proliferator-activated receptor gamma (Mus musculus) (UniProt P37238); test: Inverse agonist activity at PPARgamma in NMRI-nu/nu mouse assessed as reduction in Fabp4 mRNA expression in adipose tissue at 100 mg/kg for 3 days and measured 6 hrs last dose by qPCR analysis; assay type: organism-based; details: time 3.0 day
T5 sequence (whole entry): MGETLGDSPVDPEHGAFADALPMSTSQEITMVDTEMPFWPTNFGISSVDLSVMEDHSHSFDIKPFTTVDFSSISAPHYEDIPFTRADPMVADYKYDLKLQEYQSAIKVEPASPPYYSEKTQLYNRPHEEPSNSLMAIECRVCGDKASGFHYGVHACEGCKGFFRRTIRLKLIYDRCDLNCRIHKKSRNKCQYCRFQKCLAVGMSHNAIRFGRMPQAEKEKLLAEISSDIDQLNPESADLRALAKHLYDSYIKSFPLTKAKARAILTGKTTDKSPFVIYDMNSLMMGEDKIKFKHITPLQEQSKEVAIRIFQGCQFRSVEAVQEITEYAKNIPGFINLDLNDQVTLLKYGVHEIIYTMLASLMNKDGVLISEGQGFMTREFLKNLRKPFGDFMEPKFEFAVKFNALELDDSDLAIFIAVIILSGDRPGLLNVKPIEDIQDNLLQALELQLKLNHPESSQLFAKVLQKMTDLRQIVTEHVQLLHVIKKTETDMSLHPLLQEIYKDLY

Cc1cccc(-c2nc3cc(NC(=O)c4cc(C(=O)NCc5ccc(F)c(F)c5)c(F)cc4Cl)ccc3o2)c1
IC50 [1]: 0.0187 µM | EC50 [2]: 0.23 µM | Emax [3]: 93%

O=C(NCc1ccccc1)c1cc(C(=O)Nc2ccccc2)c(Cl)c(C(F)(F)F)c1
EC50 [2]: 2.2 µM | IC50 [4]: > 5 µM

Cc1ccccc1NC(=O)c1cc(C(=O)NCc2ccccc2)c(F)cc1Cl
IC50 [1]: 0.165 µM | EC50 [2]: 0.069 µM | IC50 [4]: 0.038 µM | Emax [3]: 26%

Cc1cccnc1NC(=O)c1cc(C(=O)NCc2ccc(F)c(F)c2)c(F)cc1Cl
IC50 [1]: 0.695 µM | EC50 [2]: 0.5 µM | IC50 [4]: 0.091 µM | Emax [3]: 108%

O=C(Nc1ccncc1)c1cc([N+](=O)[O-])ccc1Cl
IC50 [5]: 2.95 µM | Emax [6]: 289% | IC50 [7]: > 5 µM

COCCOCc1cc(F)ccc1CNC(=O)c1cc(C(=O)Nc2ccc(C(F)(F)F)cc2C)c(Cl)cc1F
EC50 [2]: 0.031 µM

Cc1c(C)n(Cc2ccc(Cl)c(O[C@@H](C)C(=O)O)c2)c2ccc(C(=O)N[C@@H](C)c3ccc(C(C)(C)C)cc3)cc12
IC50 [5]: 0.935 µM | IC50 [7]: 9 µM | Activity [8]: inactive

Cc1cc(-c2nnco2)ccc1NC(=O)c1cc(C(=O)NCc2ccc(F)c(F)c2)c(F)cc1Cl
EC50 [2]: 0.049 µM | Emax [3]: 87%

O=C(NCc1ccc(F)c(F)c1)c1cc(C(=O)Nc2ccccn2)c(Cl)cc1F
EC50 [2]: 0.11 µM | Emax [3]: 100%
